# Measurements published in US8680132B2, “Spiro-oxindole MDM2 antagonists” (priority 2010, dated 2014).
# “And” between values parts separate entries of the source, which are not always exact repeats. Equal entries are not always repeated.
# What was measured:
# DoHH2 = assay: Anti-proliferative ATP assay; format: cell-based; settings: Homo sapiens, DOHH-2, GCB-DLBCL, p53 WT/WT, BCL2 overexpression
# LNCAP (p53 wild-type) = assay: Cell growth assay (WST-8); format: cell-based, human; settings: Homo sapiens, LNCaP, 96 h, read-out: IC50 LNCAP (p53 wild-type), Four day treatment
# SNU-5 = assay: Anti-proliferative ATP assay; format: cell-based; settings: Homo sapiens, gastric, Met amplified
# 22RV1 = assay: Anti-proliferative ATP assay; format: cell-based; settings: Homo sapiens, prostate, p53 WT/MUT
# MKN45 = assay: Anti-proliferative ATP assay; format: cell-based; settings: Homo sapiens, MKN-45, gastric, p53 WT/WT, Met amplified
# Ly10 = assay: Anti-proliferative ATP assay; format: cell-based; settings: ABC-DLBCL, p53 WT/WT
# HCT-116 (p53 wild-type) = assay: Cell growth assay (WST-8); format: cell-based, human; settings: Homo sapiens, HCT-116, 96 h, read-out: IC50 HCT-116 (p53 wild-type), Four day treatment
# Y79 = assay: Anti-proliferative ATP assay; format: cell-based; settings: Homo sapiens, retinoblastome, p53 WT/WT, Rb mutated
# [1] = system: SJSA-1 (osteosarcoma) tumors; assay: In vivo efficacy, SJSA-1 xenograft model; design: species or system mice; settings: single 200 mg/kg dose (QD1 treatment) versus QD7 treatment; FIG. 22
# Description: A cell sample was mixed 1:1 with Trypan Blue (GIBCO™, Invitrogen Corp.) and counted on a hemocytometer to determine the number of live/dead cells. Cells were washed once with 1×PBS (GIBCO™, Invitrogen Corp.) and resuspended in PBS. […] Cells were injected s.c. into the flank region of each mouse using a 27 gauge needle. The size of tumors growing in the mice was measured in two dimensions using calipers. Tumor volume (mm^3)=(A×B^2)/2 where A and B are the tumor length and width (in mm), respectively. During treatment, tumor volume and body weight was measured three times a week. After the treatment was stopped, tumor volume (FIGS. 17, 20, 22, and 23) and body weight (FIGS. 18 and 21) was measured at least once a week. Mice were kept for an additional 60 days for further observation of tumor growth and toxicity. […] Before treatment began, tumors were allowed to grow to 60-140 mm^3 in volume, at which point the blood vessel supplies to the tumor should have been established. […] The Control group received vehicle alone (10% PEG 400:3% Cremophor:87% PBS).
# Capan2 = assay: Anti-proliferative ATP assay; format: cell-based; settings: Homo sapiens, Capan-2, pancreas, p53 —/—
# MV4; 11 = assay: Anti-proliferative ATP assay; format: cell-based; settings: Homo sapiens, AML, p53 WT/WT, FLT3-ITD
# SJSA1 = assay: Anti-proliferative ATP assay; format: cell-based; settings: Homo sapiens, SJSA-1, bone, p53 WT/WT, MDM2 amplified
# SNU-1 = assay: Anti-proliferative ATP assay; format: cell-based; settings: Homo sapiens, SNU1, gastric, p53 WT/WT, KRAS mut
# Ly7 = assay: Anti-proliferative ATP assay; format: cell-based; settings: GCB-DLBCL, p53 WT/MUT
# CCF-STTG1 = assay: Anti-proliferative ATP assay; format: cell-based; settings: Homo sapiens, CNS, p53 WT/WT, MDM2 amplified
# RKO = assay: Anti-proliferative ATP assay; format: cell-based; settings: Homo sapiens, colon, p53 WT/WT
# MCF7 = assay: Anti-proliferative ATP assay; format: cell-based; settings: Homo sapiens, breast, p53 WT/WT
# MOLM13 = assay: Anti-proliferative ATP assay; format: cell-based; settings: Homo sapiens, MOLM-13, AML, p53 WT/WT, FLT3-ITD
# Description: The anti-proliferative IC50 was determined by ATP assay.
# EHEB = assay: Anti-proliferative ATP assay; format: cell-based; settings: CLL, p53 WT/WT
# SR = assay: Anti-proliferative ATP assay; format: cell-based; settings: Homo sapiens, lymphoma, p53 WT/WT
# H1299 = assay: Anti-proliferative ATP assay; format: cell-based; settings: Homo sapiens, NCI-H1299, lung, p53 —/—
# Ku812 = assay: Anti-proliferative ATP assay; format: cell-based; settings: Homo sapiens, CML-BC, p53 WT/WT
# RS4; 11 = assay: Anti-proliferative ATP assay; format: cell-based; settings: Homo sapiens, ALL, p53 WT/WT
# JAR = assay: Anti-proliferative ATP assay; format: cell-based; settings: placenta, p53 WT/WT, MDM2 amplified
# SJSA-1 (p53 wild-type) = assay: Cell growth assay (WST-8); format: cell-based; settings: Homo sapiens, SJSA-1, 96 h, read-out: IC50 SJSA-1 (p53 wild-type), Four day treatment
# Rec1 = assay: Anti-proliferative ATP assay; format: cell-based; settings: Homo sapiens, MCL, p53 WT/WT
# LnCap = assay: Anti-proliferative ATP assay; format: cell-based; settings: Homo sapiens, prostate, p53 WT/WT
# U2OS = assay: Anti-proliferative ATP assay; format: cell-based; settings: Homo sapiens, bone, p53 WT/WT
# PC-3 (deleted p53) = assay: Cell growth assay (WST-8); format: cell-based; settings: 96 h, read-out: IC50 PC-3 (deleted p53), Four day treatment
# LY3 = assay: Anti-proliferative ATP assay; format: cell-based; settings: ABC-DLBCL, p53 WT/WT
# RS4; 11 (p53 wt) = settings: read-out: RS4, Four day treatment
# [2] = system: prostate cancer cell line 22Rv1; assay: Growth inhibition assay (Celltiter-Glo), 22Rv1; format: cell-based; settings: Homo sapiens; 22Rv1; 96 h; 96-well format; read-out: IC50 growth inhibition
# Hs746T = assay: Anti-proliferative ATP assay; format: cell-based; settings: Homo sapiens, gastric, Met amplified
# HCT116 = assay: Anti-proliferative ATP assay; format: cell-based; settings: Homo sapiens, HCT-116, colon, p53 WT/WT
# H929 = assay: Anti-proliferative ATP assay; format: cell-based; settings: Homo sapiens, NCI-H929, MM, p53 WT/WT
smiles,measurement,setting,value
CC(C)(C)C[C@@H]1N[C@@H](C(=O)NC2CCC(O)CC2)[C@H](c2cccc(Cl)c2F)[C@]12C(=O)Nc1cc(Cl)ccc12 (some centres unmarked) [MI-77301 (free amine)],IC50,DoHH2,39.3 nM
same,IC50,LNCAP (p53 wild-type),0.054 ± 0.008 µM
same,IC50,SNU-5,> 10000 nM
same,IC50,22RV1,399 nM
same,IC50,MKN45,> 10000 nM
same,IC50,Ly10,90 nM
same,IC50,HCT-116 (p53 wild-type),0.033 ± 0.01 µM
same,IC50,Y79,430 nM
same,antitumor efficacy (tumor volume),[1],comparable efficacy to a continuous dosing regimen
same,IC50,Capan2,> 10000 nM
same,IC50,MV4; 11,45.4 nM
same,IC50,SJSA1,145 nM
same,IC50,SNU-1,77 nM
same,IC50,Ly7,> 10000 nM
same,IC50,CCF-STTG1,162 nM
same,IC50,RKO,480 nM
same,IC50,MCF7,201 nM
same,IC50,MOLM13,14.7 nM
same,IC50,EHEB,70 nM
same,IC50,SR,14.9 nM
same,IC50,H1299,> 10000 nM
same,IC50,Ku812,> 10000 nM
same,IC50,RS4; 11,28 nM
same,IC50,JAR,169 nM
same,IC50,SJSA-1 (p53 wild-type),0.058 ± 0.023 µM
same,IC50,Rec1,738 nM
same,IC50,LnCap,50 nM
same,IC50,U2OS,> 10000 nM
same,IC50,PC-3 (deleted p53),8.45 ± 0.35 µM
same,IC50,LY3,280 nM
same,IC50,RS4; 11 (p53 wt),0.102 µM and 0.081 µM
same,IC50,[2],0.1 to 0.5 µM
same,IC50,Hs746T,10000 nM
same,IC50,HCT116,229 nM
same,IC50,H929,114 nM
